Experimental data reported in patent US7629310B2, “RhoB as a suppressor of cancer cell growth, cell transformation, and metastasis” (University of South Florida, priority 2000, dated 2009).

Tests used:
NIH3T3 cells [1] = assay: Focus formation assay in oncogene-transfected NIH3T3 cells; format: cell-based; parameters: inhibition of focus formation: concentration or dose not given beside the values; conditions: for # of foci formed: 4 weeks
Protocol: (§1) Focus Formation Assay. NIH3T3 cells were seeded into 60-mm plates (1×10^6 cell/per plate) one day prior to gene transfection. […] Two days after transfection, the cells were seeded into 60-mm plates at a density of 2.5×10^3/per plate, and maintained in DMEM medium containing 1.5% CBS. The medium was changed every 3 days. 3-4 weeks later the cells were washed once with PBS and once with PBS/methanol (1:1), then washed with fresh anhydrous methanol and covered with crystal violet stain for 1 min at room temperature. Finally, the stain was displaced with water. The focus formation assay for A-549 cells was similarly performed as above except that following the transfection the cells were cultured in DMEM complete medium containing 400 μg/ml of geneticin (G418, […], Inc.). 3 weeks later, the cells were fixed with anhydrous methanol and stained with crystal violet; the plates were photographed. All the samples were performed in triplicate and a representative of 3 independent experiments was reported in the figure(s) and averages±standard deviation reported in the table.

NIH3T3 cells [2] = assay: Anoikis assay in transfected NIH3T3 cells; format: cell-based; conditions: transfected NIH3T3, poly-HEMA plates, 12 or 24 hours, vs pcDNA3 (FIG. 10B)
Protocol: (§2) Parental NIH3T3 cells (FIG. 10A) were transiently transfected with pcDNA3 vector, HRas61L, or Akt in the presence or absence of RhoA, RhoB, or pcDNA3 for 36 hours. The cells were then split and cultured in DMEM medium containing 2 μM 5-FU for another 48 hours. The cells were then examined for their susceptibility to 5-FU-induced apoptosis by Annexin V labeling and flow cytometry apoptosis assays as described in the Materials and Methods section. 36 hours after the transfection, a fraction of the cells from FIG. 10A were washed and re-suspended in serum-free medium and seeded into the pre-coated plates and examined for viability at different time points by Annex V and 7-AAD labeling, as shown in FIG. 10B. In FIG. 10B, the bars at each time point (0, 12, 24 hrs), left-to-right, correspond to PCD, H-Ras, AKT, RhoA, RhoB, Akt+RhoA, and Akt+RhoB, respectively. B16-F10 melanoma cells were transiently transfected with pcDNA3 vector, pcDNA-RhoA or pcDNA-RhoB; 20 hours later, the cells were examined for gene delivery by Western Blotting with anti-HA, as shown in FIG. 10C. 5×10^5 of the cells from FIG. 10A were injected into the tail veins of C57/B16 mice. The numbers of metastatic nodules per mouse lung represent an average±standard error from 5 mice per group. […]
Anoikis Assay. […] 24 hrs later the cellular viability was determined by trypan blue exclusion.

NIH3T3 cells [3] = assay: 5-FU-induced apoptosis (Annexin V, flow cytometry) in NIH3T3 cells; format: cell-based; conditions: for 5-FU apoptotic rate after transfection: NIH3T3, transfected 24 hours then 5-FU 48 hours (FIG. 10A), control 28-30%; for percent of apoptosis induced by 5-FU after transfection: parental NIH3T3, transfected 24 hrs then 5-FU 48 hrs, control 28%
Protocol: Apoptosis Assay. Cells were collected by trypsinization, washed in wash buffer and stained with Annexin V and 7-AAD according to manufacturer's recommendation (PharMingen, San Diego, Calif.). Data acquisition and analysis was performed by the Flow Cytometry Core Facility at the H. Lee Moffitt Cancer Center (Tampa, Fla.). All the samples were performed in duplicate and a representative of 3 independent experiments were reported here.

A-549 cells = assay: Focus/colony formation of A-549 cells in G418 medium; format: cell-based, human; conditions: transfected A-549 cells, 3 weeks
Protocol: as §1

H-Ras/NIH3T3 cells = assay: Cell proliferation, H-Ras-transformed NIH3T3; format: cell-based; conditions: H-Ras-transformed NIH3T3, 0-96 hours
Protocol: Cell Proliferation. Cells were collected and examined for cell number by trypan blue exclusion and hemocytometer counting under microscope at 0 h, 24 h, 48 h, 72 h and 96 h. All the samples were performed in triplicate and the averages of 3 independent experiments were reported.

NIH3T3 cells [4] = assay: Wound healing migration assay in NIH3T3 cells; format: cell-based; conditions: NIH3T3, 24 hours after wounding (FIG. 8D)
Protocol: Parental NIH3T3 (FIG. 8A) were transiently transfected with pcDNA3 vector control, H-Ras61L, CA-PI3K, or CA-Akt in the presence or absence of RhoA or RhoB or pcDNA3 for 36 hours. The cells were then split and cultured for another 4 weeks. The plates were examined for focus formation by staining. H-Ras/3T3 cells (FIG. 8B) and PANC-1 cells (FIG. 8C) were transiently transfected with pcDNA3 vector control, CA-Akt, or WT-Akt in the presence or absence of RhoA, RhoB, or pcDNA3 for 36 hours. The cells were then split and analyzed for their migration capabilities through collagen type I coated transfilters as described in the Materials and Methods section. NIH3T3 cells (FIGS. 8D and 8E) were transiently transfected with pcDNA3 vector control, H-Ras61L, CA-Akt, or WT-Akt in the presence or absence of RhoA, RhoB, or pcDNA3 for 36 hours. The monolayers were then scratched with a 20 μl pipette tip and micro-photographed at the time points indicated for analyzing their capability to migrate into and fill the wounded area.
The ability of RhoB to inhibit cancer cell migration was further confirmed in a different assay where cells are induced to migrate by physical wounding of cells plated on fibronectin pre-coated plates.

B16-F10 melanoma cells = assay: Melanoma metastasis assay (B16-F10 cells injected into tail vein); format: in vivo, mouse; conditions: transfected B16-F10 cells, C57 black mice, after 3 weeks, pcDNA3 control 14.8±1.9
Protocol: as §2, with “respectively.” for “respectively. B16-F10 melanoma cells were transiently transfected with pcDNA3 vector, pcDNA-RhoA or pcDNA-RhoB; 20 hours later, the cells were examined for gene delivery by Western Blotting with anti-HA, as shown in FIG. 10C. 5×10^5 of the cells from FIG. 10A were injected into the tail veins of C57/B16 mice. The numbers of metastatic nodules per mouse lung represent an average±standard error from 5 mice per group.”
Melanoma Metastasis Assay. pcDNA3, pcDNA-RhoB and pcDNA-RhoA were transfected into B16-F10 cells similarly as described above. The cells were harvested 20 hours post-transfection; 5×10^5 cells from each group were analyzed for transfection efficiency by Western Blotting; another 5×10^5 cells were injected into the tail veins of C57/B16 mice (6 wk, F). The mice were sacrificed at the indicated intervals and the nodules growing in the lungs were counted.

| Molecule | # of foci formed (NIH3T3 cells [1]; oncogene transfected: EGFR) | # of foci formed (NIH3T3 cells [1]; oncogene transfected: ErbB2) | # of foci formed (NIH3T3 cells [1]; oncogene transfected: H-Ras) | # of foci formed (NIH3T3 cells [1]; oncogene transfected: K-Ras) | # of foci formed (NIH3T3 cells [1]; oncogene transfected: N-Ras) | # of foci formed (NIH3T3 cells [1]; oncogene transfected: v-Src) | cell death induced by lack of attachment (anoikis) (NIH3T3 cells [2]) | 5-FU apoptotic rate after transfection (NIH3T3 cells [3]) | percent of apoptosis induced by 5-FU after transfection (NIH3T3 cells [3]) | number of colonies (A-549 cells) | growth rate (H-Ras/NIH3T3 cells) | wound healing (NIH3T3 cells [4]) | metastatic colonies per lung (B16-F10 melanoma cells) | further results |
| --- | --- | --- | --- | --- | --- | --- | --- | --- | --- | --- | --- | --- | --- | --- |
| RhoB: low molecular weight GTPase; wild-type RhoB subcloned into HA-tagged pcDNA3 and ectopically expressed by transfection | 17 ± 3 | 19 ± 4 | 18 ± 3 | 16 ± 4 | 22 ± 3 | 26 ± 6 | significantly higher cell death | enhanced | 39% | 178+/−19 | inhibited the growth rate | inhibited | 2±0.7 | colony (focus) formation (NIH3T3 cells [1]; co-transfection with H-Ras61L, CA-PI3K or CA-Akt, 4 weeks (FIG. 8A)): significant inhibition of colony formation; inhibition of focus formation (NIH3T3 cells [1]; focus formation by EGFR): 56%; inhibition of focus formation (NIH3T3 cells [1]; focus formation by ErbB2): 59%; inhibition of focus formation (NIH3T3 cells [1]; focus formation by H-Ras): 62%; inhibition of focus formation (NIH3T3 cells [1]; focus formation by K-Ras): 61%; inhibition of focus formation (NIH3T3 cells [1]; focus formation by N-Ras): 39%; inhibition of focus formation (NIH3T3 cells [1]; v-Src transformation): 15% |
| RhoA: closely related family member sharing 86% sequence identity with RhoB; wild-type, in HA-tagged pcDNA3, transfected as control | 47 ± 7 | 61 ± 11 | 63 ± 11 | 71 ± 13 | 46 ± 8 | 35 ± 7 | much lower rate of anoikis | slightly protected | no significant effect | 593+/−43 | enhanced the rate of growth | accelerated | 13±4.5 | – |
| O=c1[nH]cc(F)c(=O)[nH]1 [5-FU, 5-fluorouracil] | – | – | – | – | – | – | – | – | – | – | – | – | – | apoptosis (NIH3T3 cells [3]; NIH3T3, 5-FU 48 hours (FIG. 10A)): 28-30%; apoptosis (NIH3T3 cells [3]; parental NIH3T3, 5-FU 2.0 μM 48 hrs (FIG. 4B)): 27-32% |
